From the supplement of paper PMC10307832

Assays:
Assay in all cases: relative viability (nuclei count vs DMSO), 5 days (fraction); higher = more cells survive
[1] = compound: CN1CCC(CC1)OC2=CC(=C(C=C2)NC3=NC=C4C(=N3)N(C(=O)N4C)C5CCCC5)OC [AZ3146] + Cc1cc(Nc2cc(N3CCN(C)CC3)nc(Sc3ccc(NC(=O)C4CC4)cc3)n2)n[nH]1 [Tozasertib] (partner 0.1 µM)
Outline: (§1)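 Five library-drug doses in √10 steps were combined with a fixed anchor-drug dose, or a single drug was given alone, by pin tool to lung cancer cell lines in 1536-well plates the day after seeding. Nuclei were stained and counted after 5 days. Relative viability is the nuclei count in treated wells over that in vehicle wells, taken as the median of duplicate plates.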

[2] = compound: CCOC(=O)CCNc1cc(N2CCc3ccccc3CC2)nc(-c2ccccn2)n1 [GSK-J4] + O=C(c1cc(Cc2n[nH]c(=O)c3ccccc23)ccc1F)N1CCN(C(=O)C2CC2)CC1 [Olaparib] (partner 8 µM)
Outline: as §1

[3] = compound: CN1CCC(CC1)OC2=CC(=C(C=C2)NC3=NC=C4C(=N3)N(C(=O)N4C)C5CCCC5)OC [AZ3146] + Nc1ncn([C@H]2C[C@H](O)[C@@H](CO)O2)c(=O)n1 [Decitabine] (partner 2 µM)
Outline: as §1

[4] = compound: CCOC(=O)CCNc1cc(N2CCc3ccccc3CC2)nc(-c2ccccn2)n1 [GSK-J4] + CS(=O)(=O)CCNCc1ccc(-c2ccc3ncnc(Nc4ccc(OCc5cccc(F)c5)c(Cl)c4)c3c2)o1 [Lapatinib] (partner 2 µM)
Outline: as §1

Cell Line	relative viability ([1]; first compound 0.08 µM)	relative viability ([1]; first compound 0.253 µM)	relative viability ([1]; first compound 0.8 µM)	relative viability ([1]; first compound 2.53 µM)	relative viability ([1]; first compound 8 µM)	relative viability ([2]; first compound 0.5 µM)	relative viability ([2]; first compound 1.581 µM)	relative viability ([2]; first compound 5 µM)	relative viability ([2]; first compound 15.81 µM)	relative viability ([2]; first compound 50 µM)	relative viability ([3]; first compound 0.08 µM)	relative viability ([3]; first compound 0.253 µM)	relative viability ([3]; first compound 0.8 µM)	relative viability ([3]; first compound 2.53 µM)	relative viability ([3]; first compound 8 µM)	relative viability ([4]; first compound 0.5 µM)	relative viability ([4]; first compound 1.581 µM)	relative viability ([4]; first compound 5 µM)	relative viability ([4]; first compound 15.81 µM)	relative viability ([4]; first compound 50 µM)
NCI-H1651	0.597	0.793	0.465	0.552	0.297	0.178	0.158	0.184	0.182	0.18	0.532	0.634	0.549	0.543	0.617	0.84	0.779	0.814	0.863	0.839
NCI-H1666	0.473	0.527	0.442	0.463	0.338	0.684	0.676	0.786	0.746	0.699	0.666	0.706	0.679	0.673	0.711	0.576	–	0.7	0.567	0.382
NCI-H1734	0.225	0.264	0.279	0.275	0.29	0.652	0.549	0.551	0.582	0.333	0.4	0.499	0.429	0.5	0.484	0.977	0.802	0.74	0.893	0.725
NCI-H1755	0.519	0.696	0.678	0.766	0.588	0.853	0.754	0.841	0.859	0.687	0.68	0.716	0.739	0.842	0.839	0.96	0.905	0.673	0.923	0.917
NCI-H1793	0.315	0.34	0.296	0.192	0.254	0.751	0.634	0.482	0.201	0.145	0.252	0.523	0.456	0.283	0.488	0.71	0.557	0.621	0.404	0.234
NCI-H1915	0.409	0.483	0.367	0.381	0.351	0.279	0.229	–	0.224	0.257	0.267	0.27	0.266	0.251	0.264	0.963	0.802	0.83	0.941	0.961
NCI-H1944	0.219	0.241	0.246	0.235	0.224	0.389	0.373	–	0.376	0.358	0.329	0.44	0.429	0.445	0.468	0.8	0.795	0.78	0.665	0.787
NCI-H1975	0.684	0.732	0.275	0.208	0.227	0.729	0.715	0.579	0.795	0.849	0.415	0.601	0.367	0.379	0.415	0.873	0.971	–	0.929	1.19
NCI-H1993	0.544	0.548	0.6	0.544	0.51	1.21	0.885	1.1	0.952	1.01	0.699	0.54	0.561	0.588	0.594	0.837	0.878	0.927	0.808	0.671
NCI-H2009	0.669	0.689	0.463	0.557	0.434	0.603	0.638	0.556	0.593	0.449	0.372	0.333	0.41	0.417	0.328	0.828	0.144	0.56	0.971	0.739
NCI-H2023	0.331	0.328	0.171	0.157	0.147	0.453	0.413	0.472	0.379	0.348	0.235	0.203	0.246	0.227	0.13	0.827	0.0641	0.727	0.641	0.474
NCI-H2085	0.747	0.786	0.727	0.587	0.508	0.773	0.734	0.654	0.707	0.627	0.525	0.53	0.581	0.598	0.611	0.696	0.679	0.77	0.615	0.397
NCI-H2087	0.215	0.31	0.236	0.17	0.175	0.525	0.535	0.439	0.542	0.371	0.227	0.328	0.289	0.315	0.202	0.794	0.514	–	1.01	0.57
NCI-H2126	0.71	0.803	0.722	0.378	0.234	0.912	0.895	0.966	0.855	0.762	0.626	0.604	0.569	0.597	0.572	0.817	0.657	0.854	0.69	0.59
NCI-H2170	0.593	0.838	0.644	0.561	0.266	0.533	0.538	0.652	0.536	0.391	0.441	0.477	0.461	0.421	0.466	0.311	0.247	0.265	0.261	0.22
NCI-H2347	0.399	0.529	0.461	0.744	0.464	0.587	0.597	0.554	0.675	0.437	0.588	0.67	0.593	0.601	0.631	0.841	0.573	0.753	0.963	0.664
